Results published in patent US8877748B2, “Heterocyclic fused anthraquinone derivatives, manufacturing method and pharmaceutical composition using thereof” (National Defense Medical Center, priority 2012, dated 2014).

Columns and labels:
HL-60, TB = assay: NCI one-dose screening, leukemia HL-60, TB; type: cell-based, human; conditions: 10 μM
OVCAR-5 = assay: NCI one-dose screening, ovarian cancer OVCAR-5; type: cell-based, human; conditions: 10 μM
786-O = assay: NCI one-dose screening, renal cancer 786-O; type: cell-based, human; conditions: 10 μM
T-47D = assay: NCI one-dose screening, breast cancer T-47D; type: cell-based, human; conditions: 10 μM
NCl/ADR-RES = assay: NCI one-dose screening, breast cancer NCl/ADR-RES; type: cell-based, human; conditions: 10 μM; listed under Ovarian cancer
SNB-19 = assay: NCI one-dose screening, CNS cancer SNB-19; type: cell-based, human; conditions: 10 μM
MDA, -MB-435 = assay: NCI one-dose screening, breast cancer MDA, -MB-435; type: cell-based, human; conditions: 10 μM; listed under Melanoma
BT-549 = assay: NCI one-dose screening, breast cancer BT-549; type: cell-based, human; conditions: 10 μM
NCI-H23 = assay: NCI one-dose screening, non-small cell lung cancer NCI-H23; type: cell-based, human; conditions: 10 μM
SF-295 = assay: NCI one-dose screening, CNS cancer SF-295; type: cell-based, human; conditions: 10 μM
KM12 = assay: NCI one-dose screening, colon cancer KM12; type: cell-based, human; conditions: 10 μM
RXF, 393 = assay: NCI one-dose screening, renal cancer RXF, 393; type: cell-based, human; conditions: 10 μM
HS 578-T = assay: NCI one-dose screening, breast cancer HS 578-T; type: cell-based, human; conditions: 10 μM; Breast cancer
A549/ATCC = assay: NCI one-dose screening, non-small cell lung cancer A549/ATCC; type: cell-based, human; conditions: 10 μM
UACC-62 = assay: NCI one-dose screening, melanoma UACC-62; type: cell-based, human; conditions: 10 μM
HCT-15 = assay: NCI one-dose screening, colon cancer HCT-15; type: cell-based, human; conditions: 10 μM
ACHN = assay: NCI one-dose screening, renal cancer ACHN; type: cell-based, human; conditions: 10 μM
SNB-75 = assay: NCI one-dose screening, CNS cancer SNB-75; type: cell-based, human; conditions: 10 μM
SN12C = assay: NCI one-dose screening, renal cancer SN12C; type: cell-based, human; conditions: 10 μM
SK-MEL-28 = assay: NCI one-dose screening, melanoma SK-MEL-28; type: cell-based, human; conditions: 10 μM
UO-31 = assay: NCI one-dose screening, renal cancer UO-31; type: cell-based, human; conditions: 10 μM
SK-OV-3 = assay: NCI one-dose screening, ovarian cancer SK-OV-3; type: cell-based, human; conditions: 10 μM
OVCAR-3 = assay: NCI one-dose screening, ovarian cancer OVCAR-3; type: cell-based, human; conditions: 10 μM
HCT-116 = assay: NCI one-dose screening, colon cancer HCT-116; type: cell-based, human; conditions: 10 μM
MCF7 = assay: NCI one-dose screening, breast cancer MCF7; type: cell-based, human; conditions: 10 μM
SR = assay: NCI one-dose screening, leukemia SR; type: cell-based, human; conditions: 10 μM
[1] = system: PC-3 prostate cancer cell line; assay: SRB assay cell viability, PC-3 prostate cancer cell line; type: cell-based, human; conditions: Homo sapiens, PC-3 prostate cancer cell line, Table II prints no unit, μM printed, read-out: SRB assay: 50% inhibition of cancer cell proliferation of sample concentration (IC50) of PC-3 prostate cancer cell line
MOLT-4 = assay: NCI one-dose screening, leukemia MOLT-4; type: cell-based, human; conditions: 10 μM
SK-MEL-5 = assay: NCI one-dose screening, melanoma SK-MEL-5; type: cell-based, human; conditions: 10 μM
DU145 = assay: NCI one-dose screening, prostate cancer DU145; type: cell-based, human; conditions: 10 μM
SF-268 = assay: NCI one-dose screening, CNS cancer SF-268; type: cell-based, human; conditions: 10 μM
IGROV1 = assay: NCI one-dose screening, ovarian cancer IGROV1; type: cell-based, human; conditions: 10 μM
human tumor cell lines = assay: NCI one-dose screening, Mean / Delta / Range of growth percent over all tested cell lines; type: cell-based; conditions: 10 μM
SF-539 = assay: NCI one-dose screening, CNS cancer SF-539; type: cell-based, human; conditions: 10 μM
M14 = assay: NCI one-dose screening, melanoma M14; type: cell-based, human; conditions: 10 μM
PC-3 = assay: NCI one-dose screening, prostate cancer PC-3; type: cell-based, human; conditions: 10 μM
MDA-MB-468 = assay: NCI one-dose screening, breast cancer MDA-MB-468; type: cell-based, human; conditions: 10 μM
K562cell line = assay: NCI one-dose screening, leukemia K562; type: cell-based, human; conditions: 10 μM
HOP-92 = assay: NCI one-dose screening, non-small cell lung cancer HOP-92; type: cell-based, human; conditions: 10 μM
EKVX = assay: NCI one-dose screening, non-small cell lung cancer EKVX; type: cell-based, human; conditions: 10 μM
OVCAR-8 = assay: NCI one-dose screening, ovarian cancer OVCAR-8; type: cell-based, human; conditions: 10 μM
PRMI-8226 cell line = assay: NCI one-dose screening, leukemia PRMI-8226; type: cell-based, human; conditions: 10 μM
NCI-H226 = assay: NCI one-dose screening, non-small cell lung cancer NCI-H226; type: cell-based, human; conditions: 10 μM
NCI-H460 = assay: NCI one-dose screening, non-small cell lung cancer NCI-H460; type: cell-based, human; conditions: 10 μM
MALME-3M = assay: NCI one-dose screening, melanoma MALME-3M; type: cell-based, human; conditions: 10 μM
UACC-257 = assay: NCI one-dose screening, melanoma UACC-257; type: cell-based, human; conditions: 10 μM
COLO 205 = assay: NCI one-dose screening, colon cancer COLO 205; type: cell-based, human; conditions: 10 μM
MDA-MB-231/ATCC = assay: NCI one-dose screening, breast cancer MDA-MB-231/ATCC; type: cell-based, human; conditions: 10 μM
CAKI-1 = assay: NCI one-dose screening, renal cancer CAKI-1; type: cell-based, human; conditions: 10 μM
SK-MEL-2 = assay: NCI one-dose screening, melanoma SK-MEL-2; type: cell-based, human; conditions: 10 μM
HOP-62 = assay: NCI one-dose screening, non-small cell lung cancer HOP-62; type: cell-based, human; conditions: 10 μM
NCI-H522 = assay: NCI one-dose screening, non-small cell lung cancer NCI-H522; type: cell-based, human; conditions: 10 μM
U251 = assay: NCI one-dose screening, CNS cancer U251; type: cell-based, human; conditions: 10 μM
TK-10 = assay: NCI one-dose screening, renal cancer TK-10; type: cell-based, human; conditions: 10 μM
[2] = NCI one-dose screening, renal cancer A489; type: cell-based, human; conditions: 10 μM
HT29 = assay: NCI one-dose screening, colon cancer HT29; type: cell-based, human; conditions: 10 μM
HCC-2998 = assay: NCI one-dose screening, colon cancer HCC-2998; type: cell-based, human; conditions: 10 μM
LOX IMVI = assay: NCI one-dose screening, melanoma LOX IMVI; type: cell-based, human; conditions: 10 μM

Structure (SMILES): CSc1ccc(Sc2cc3c(c4nsnc24)C(=O)c2ccccc2C3=O)cc1 [C43, 4-(4-(methylthio)phenylthio)anthra[2,1-c] [1,2,5]thiadiazol-6,11-dione]
- Growth Percent HL-60(TB) (HL-60, TB): 105.25%
- Growth Percent OVCAR-5 (OVCAR-5): 108.31%
- Growth Percent 786-0 (786-O): 109.83%
- Growth Percent T-47D (T-47D): 86.56%
- Growth Percent NCI/ADR-RES (NCl/ADR-RES): 91.79%
- Growth Percent SNB-19 (SNB-19): 101.61%
- Growth Percent MDA-MB-435 (MDA, -MB-435): 118.40%
- Growth Percent BT-549 (BT-549): 107.82%
- Growth Percent NCI-H23 (NCI-H23): 81.49%
- Growth Percent SF-295 (SF-295): 98.897%
- Growth Percent KM12 (KM12): 100.42%
- Growth Percent RXF 393 (RXF, 393): 106.98%
- Growth Percent HS 578T (HS 578-T): 96.47%
- Growth Percent A549/ATCC (A549/ATCC): 104.69%
- Growth Percent UACC-62 (UACC-62): 110.99%
- Growth Percent HCT-15 (HCT-15): 111.56%
- Growth Percent ACHN (ACHN): 103.64%
- Growth Percent SNB-75 (SNB-75): 75.08%
- Growth Percent SN12C (SN12C): 98.04%
- Growth Percent SK-MEL-28 (SK-MEL-28): 119.66%
- Growth Percent UO-31 (UO-31): 67.56%
- Growth Percent SK-OV-3 (SK-OV-3): 102.46%
- Growth Percent OVCAR-3 (OVCAR-3): 102.89%
- Growth Percent HCT-116 (HCT-116): 101.97%
- Growth Percent MCF7 (MCF7): 82.87%
- Growth Percent SR (SR): 96.31%
- IC50 [1]: > 15 µM
- Growth Percent MOLT-4 (MOLT-4): 59.93%
- Growth Percent SK-MEL-5 (SK-MEL-5): 101.45%
- Growth Percent DU145 (DU145): 101.05%
- Growth Percent SF-268 (SF-268): 89.67%
- Growth Percent IGROV1 (IGROV1): 95.67%
- Growth Percent Delta (human tumor cell lines; delta over all cell lines): 40.76%
- Growth Percent Mean (human tumor cell lines; mean over all cell lines): 96.80%
- Growth Percent Range (human tumor cell lines; range over all cell lines): 72.06%
- Growth Percent SF-539 (SF-539): 96.48%
- Growth Percent M14 (M14): 107.55%
- Growth Percent PC-3 (PC-3): 78.37%
- Growth Percent MDA-MB-468 (MDA-MB-468): 82.25%
- Growth Percent K562 (K562cell line): 67.50%
- Growth Percent HOP-92 (HOP-92): 04.31%
- Growth Percent EKVX (EKVX): 113.82%
- Growth Percent OVCAR-8 (OVCAR-8): 97.37%
- Growth Percent RPMI-8226 (PRMI-8226 cell line): 88.58%
- Growth Percent NCI-H226 (NCI-H226): 79.69%
- Growth Percent NCI-H460 (NCI-H460): 106.20%
- Growth Percent MALME-3M (MALME-3M): 104.58%
- Growth Percent UACC-257 (UACC-257): 109.51%
- Growth Percent COLO 205 (COLO 205): 117.30%
- Growth Percent MDA-MB-231/ATCC (MDA-MB-231/ATCC): 78.80%
- Growth Percent CAKI-1 (CAKI-1): 99.44%
- Growth Percent SK-MEL-2 (SK-MEL-2): 89.27%
- Growth Percent HOP-62 (HOP-62): 102.09%
- Growth Percent NCI-H522 (NCI-H522): 95.39%
- Growth Percent U251 (U251): 103.89%
- Growth Percent TK-10 (TK-10): 128.10%
- Growth Percent A498 [2]: 56.04%
- Growth Percent HT29 (HT29): 102.26%
- Growth Percent HCC-2998 (HCC-2998): 111.01%
- Growth Percent LOX IMVI (LOX IMVI): 68.98%
